The subject of test [1] is Ps. cepacia 23. Briefly: in vitro antibacterial activity, agar plate dilution method (MIC). The test is classed as cell-based, Pseudomonas cepacia. Conditions: read-out: Minimum Inhibitory Concentration (MIC). Put shortly:
(§1)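 Overnight Mueller Hinton broth cultures were inoculated onto Mueller Hinton agar containing serial antibiotic concentrations at 10^6 CFU/ml. Plates were incubated at 37° C. for 16 hours, and MIC (μg/ml) was recorded.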

Test [2] has as its system E. coli CSH2 (RK1). Briefly: microbe, parasite or virus in culture. The test is classed as cell-based. Conditions: Escherichia coli, 16 h, read-out: Minimum Inhibitory Concentration (MIC), *E. coli CSH2 (RK1), lactamase-producing strain; 10^6 CFU/ml. Put shortly: as §1
The test system of test [3] is E. coli CSH(RE45). As to the kind of experiment: microbe, parasite or virus in culture. The format is cell-based. The note with it: Escherichia coli, 16 h, read-out: Minimum Inhibitory Concentration (MIC), *E. coli CSH(RE45), lactamase-producing strain; 10^6 CFU/ml. The method, boiled down: as §1
In test [4] the test system is A. calcoaceticus No. 4. As to the kind of experiment: in vitro antibacterial activity, agar plate dilution method (MIC). Conditions: Acinetobacter calcoaceticus, NO.4, 16 h, 10^6 CFU/ml. The test is classed as cell-based, Acinetobacter calcoaceticus. The method, boiled down:
as §1

Test [5] deals with Ps. aeruginosa AKR17. The test is described as above. The test is classed as cell-based, Pseudomonas aeruginosa. The note with it: Pseudomonas aeruginosa, read-out: Minimum Inhibitory Concentration (MIC). Put shortly: as §1
Test [6] deals with Ps. aeruginosa IF03445. Described as above. The test is classed as cell-based, Pseudomonas aeruginosa. The note with it: Pseudomonas aeruginosa, IF03445, 16 h, read-out: Minimum Inhibitory Concentration (MIC), Ps. aeruginosa IF03445; 10^6 CFU/ml. The method, boiled down:
as §1

In test [7] the test system is Ps. aeruginosa AK 109. Described as above. The test is classed as cell-based, Pseudomonas aeruginosa. Conditions: Pseudomonas aeruginosa, AK109, 16 h. The method, boiled down: as §1
The subject of test [8] is E. cloacae 963. The description is as above. The note with it: 10^6 CFU/ml. The format is cell-based. Put shortly:
as §1

For test [9], the system named is S. aureus 209P NIHJ-JC1. The test is described as above. The test is classed as cell-based. Conditions: Staphylococcus aureus, 16 h. Put shortly:
as §1

Test [10] deals with S. marcescens No. 16-2. The test is described as above. Conditions: Serratia marcescens, NO.162, 16 h. The format is cell-based. Put shortly:
as §1

Test [11] concerns P. vulgaris HX-19. Described as above. The format is cell-based. The note with it: Proteus vulgaris, HX19, 16 h, read-out: Minimum Inhibitory Concentration (MIC). Put shortly: as §1
In test [12] the test system is M. morganii GN5407. The test is described as above. The note with it: Morganella morganii, GN5407, 16 h, read-out: Minimum Inhibitory Concentration (MIC), *M. morganii GN5407, lactamase-producing strain; 10^6 CFU/ml. The test is classed as cell-based. Put shortly: as §1
Test [13] deals with E. cloacae Nek 39. The description is as above. The test is classed as cell-based. Conditions: Enterobacter cloacae, NEK39, 16 h, read-out: Minimum Inhibitory Concentration (MIC), *E. cloacae Nek 39, lactamase-producing strain; 10^6 CFU/ml. Put shortly:
as §1

The test system of test [14] is E. coli NIHJ JC2. The test is described as above. The format is cell-based. Conditions: Escherichia coli, NIHJJC2, 16 h, read-out: Minimum Inhibitory Concentration (MIC), E. coli NIHJ JC2, 10^6 CFU/ml, 37° C. The method, boiled down:
as §1

Test [15] deals with K. oxytoca GN10650. Described as above. Conditions: Klebsiella oxytoca, GN10650, 16 h, read-out: Minimum Inhibitory Concentration (MIC), *K. oxytoca GN10650, lactamase-producing strain; 10^6 CFU/ml. The test is classed as cell-based. Put shortly:
as §1

Test [16] deals with S. marcescens IAM 1184. Described as above. The note with it: Serratia marcescens, IAM1184, 16 h, read-out: Minimum Inhibitory Concentration (MIC). The test is classed as cell-based. Put shortly: as §1
Test [17] deals with P. vulgaris No. 33. Described as above. The format is cell-based. Conditions: Proteus vulgaris, NO.33, 16 h, read-out: Minimum Inhibitory Concentration (MIC), *P. vulgaris No. 33, lactamase-producing strain; 10^6 CFU/ml. Put shortly: as §1
For test [18], the system named is E. coli GN5482. Described as above. The format is cell-based. Conditions: Escherichia coli, GN5482, 16 h. The method, boiled down: as §1
For test [19], the system named is K. pneumoniae No. 42. The description is as above. The format is cell-based. Conditions: Klebsiella pneumoniae, 10^6 CFU/ml. Put shortly:
as §1

Test [20] has as its system K. pneumoniae PCI-602. The description is as above. The test is classed as cell-based. The note with it: Klebsiella pneumoniae, PCI602, 16 h, read-out: Minimum Inhibitory Concentration (MIC), K. pneumoniae PCI-602; 10^6 CFU/ml. The method, boiled down:
as §1

The mark [21] stands for this setting: Burkholderia cepacia, 16 h, Ps. cepacia 23, 10^6 CFU/ml.
Setting [22] is: 16 h, Ps. aeruginosa AKR17, 10^6 CFU/ml.
The mark [23] stands for this setting: read-out: Minimum Inhibitory Concentration (MIC).
Where [24] appears, read: Enterobacter cloacae, 963, 16 h, read-out: Minimum Inhibitory Concentration (MIC), E. cloacae 963.
Setting [25] is: read-out: Minimum Inhibitory Concentration (MIC), S. aureus 209P NIHJ-JC1, 10^6 CFU/ml, 37° C., 16 hours.
Where [26] appears, read: read-out: Minimum Inhibitory Concentration (MIC), *E. coli GN5482, lactamase-producing strain, 10^6 CFU/ml.
[27] abbreviates: read-out: Minimum Inhibitory Concentration (MIC), A. calcoaceticus No. 4.
Where [28] appears, read: S. marcescens IAM 1184, 10^6 CFU/ml.
[29] abbreviates: NO.42, 16 h, read-out: Minimum Inhibitory Concentration (MIC), *K. pneumoniae No. 42, lactamase-producing strain.
The mark [30] stands for this setting: read-out: Minimum Inhibitory Concentration (MIC), *S. marcescens No. 16-2, lactamase-producing strain, 10^6 CFU/ml.
Where [31] appears, read: Enterobacter cloacae, 16 h, E. cloacae 963, read-out: Minimum Inhibitory Concentration (MIC).

Where two headings read alike, the source gives them in different places.

Regarding `C=CCO/N=C(\C(=O)N[C@@H]1C(=O)N2C(C(=O)O)=C(CSc3nnc(-c4ccc(O)c(O)c4)s3)CS[C@H]12)c1csc(N)n1` [compound 30, sodium 78-[2-allyloxyimino-2-(2-aminothiazol-4-yl)acetamido]-3-[5-(3,4-dihydroxyphenyl)-1,3,4-thiadiazol-2-yl]thiomethyl-3-cephem-4-carboxylate], the MIC in [1] (setting [21]) was < 0.006 µg/mL; in [2], 0.0125 µg/mL; in test [3], 0.78 µg/mL; in [4] (A. calcoaceticus No. 4, read-out: Minimum Inhibitory Concentration (MIC)), 0.2 µg/mL; in [5] (setting [22]), 25 µg/mL; in test [6], 0.39 µg/mL. For the same compound, the MIC in test [7] (setting [23]) was 0.39 µg/mL; in [8] (setting [24]) it was 0.05 µg/mL; in [9] (setting [25]), 0.78 µg/mL; in [10] (setting [23]), 12.5 µg/mL; in test [11] (P. vulgaris HX-19, 10^6 CFU/ml) it was < 0.006 µg/mL; in test [12], 0.05 µg/mL. For the same compound, the MIC in [13] was determined as 0.1 µg/mL; in [14], 0.2 µg/mL; in test [15] it was 1.56 µg/mL; in [16], 0.0125 µg/mL; in test [17], 0.39 µg/mL; in test [18] (setting [26]), 0.78 µg/mL. In addition, the MIC in test [19] (16 h, *K. pneumoniae No. 42, lactamase-producing strain, read-out: Minimum Inhibitory Concentration (MIC)) was < 0.006 µg/mL; in test [20] it was < 6 ng/mL.

Consider `CON=C(C(=O)NC1C(=O)N2C(C(=O)O)=C(CSc3nc(-c4ccc(O)c(O)c4)cs3)CSC12)c1csc(N)n1` (stereo not drawn) [compound 39, sodium 7β-[2-(2-aminothiazol-4-yl)-2-methoxviminoacetamido]-3-[4-(3,4-dihydroxyphenvl)-thiazol-2-yl]thiomethyl-3-cephem-4-carboxylate], for which the MIC was 0.2 µg/mL in test [1] (setting [21]); 0.0125 µg/mL in test [2]; 0.1 µg/mL in test [3]; 0.39 µg/mL in [4] (setting [27]); > 100 µg/mL in test [5] (setting [22]); 1.56 µg/mL in [6]. Moreover, the MIC was 3.12 µg/mL in test [7] (setting [23]); 0.025 µg/mL in test [8] (setting [24]); 1.56 µg/mL in test [9] (setting [25]); 3.12 µg/mL in test [10] (setting [23]); < 0.006 µg/mL in test [11] (P. vulgaris HX-19, 10^6 CFU/ml); 0.05 µg/mL in [12]. For the same compound, the MIC in [13] came to 0.39 µg/mL; in test [14], 0.1 µg/mL; in test [15] it was 1.56 µg/mL; in test [16] (setting [28]), 0.05 µg/mL; in [17] it was 0.05 µg/mL; in [18] (setting [26]), 0.78 µg/mL. The results for the MIC in [19] (setting [29]) and in test [20] were 0.2 µg/mL and < 6 ng/mL, respectively.

Consider `CCON=C(C(=O)N[C@@H]1C(=O)N2C(C(=O)[O-])=C(CSc3nc(-c4ccc(O)c(O)c4)cs3)CS[C@H]12)c1csc(N)n1.[Na+]` [compound 48, sodium 7β-[2-(2-aminothiazol-4-yl)-2-ethoxyiminoacetamido]-3-[4-(3,4-dihydroxyphenyl)-thiazol-2-yl]thiomethyl-3-cephem-4-carboxylate], for which the MIC in [1] (Burkholderia cepacia, 23, 16 h) was 0.1 µg/mL; in [2], 0.025 µg/mL; in [3], 0.05 µg/mL; in test [4] (setting [27]), 0.39 µg/mL; in [5] (AKR17, 16 h), 50 µg/mL; in [6] it was 1.56 µg/mL. The MIC was 0.39 µg/mL in test [7] (setting [23]); 0.1 µg/mL in test [8] (setting [24]); 3.12 µg/mL in test [9] (setting [23]); 6.25 µg/mL in [10] (setting [30]); 0.0125 µg/mL in [11]; 0.1 µg/mL in test [12]. The MIC in test [13] was 0.78 µg/mL; in test [14], 0.39 µg/mL; in [15] it was 1.56 µg/mL; in test [16], 0.1 µg/mL; in test [17], 0.05 µg/mL; in test [18] (setting [26]), 1.56 µg/mL. In addition, the MIC in [19] (setting [29]) is 0.05 µg/mL; in test [20], < 6 ng/mL.

As to `CCON=C(C(=O)NC1C(=O)N2C(C(=O)O)=C(CSc3nc(C(=O)O)c(-c4ccc(O)c(O)c4)s3)CSC12)c1csc(N)n1` (stereo not drawn) [compound 53, disodium 7β-[2-(2-aminothiazol-4-yl)-2-ethoxyiminoacetamido]-3-[4-carboxylate-5-(3,4-dihydroxyphenyl)thiazol-2-yl]thiomethyl-3-cephem-4-carboxylate], the MIC in test [1] (setting [21]) is 0.025 µg/mL; in test [2], 0.0125 µg/mL; in [3] it was 0.025 µg/mL; in [4] (setting [27]) it was 0.39 µg/mL; in [5] (setting [22]), 50 µg/mL; in test [6] it was 3.12 µg/mL. In addition, the MIC in [7] (setting [23]) came to 3.12 µg/mL; in test [8] (setting [31]), 0.1 µg/mL; in test [9] (setting [23]), 12.5 µg/mL; in test [10] (setting [30]) it was 6.25 µg/mL; in test [11], 0.0125 µg/mL; in test [12], 0.05 µg/mL. Moreover, the MIC turned out to be 0.39 µg/mL in test [13]; 0.78 µg/mL in [14]; 3.12 µg/mL in test [15]; 0.05 µg/mL in [16] (setting [28]); 0.025 µg/mL in test [17]; 3.12 µg/mL in test [18] (setting [23]). Also, the MIC in test [19] (setting [29]) was 0.1 µg/mL; in [20], < 6 ng/mL.

In the case of `CCO/N=C(\C(=O)N[C@@H]1C(=O)N2C(C(=O)O)=C(CSc3ncc(-c4ccc(OC(C)=O)c(OC(C)=O)c4)o3)CS[C@H]12)c1csc(N)n1` [compound 67, disodium 3-[5-(3,4-diacetoxyphenyl)-oxazol-2-yl]thiomethyl-7β-[2-(2-aminothiazol-4)-2-ethoxyiminoacetamido]-3-cephem-4-carboxylate], the MIC is 0.05 µg/mL in [1] (setting [21]); 0.0125 µg/mL in [2]; 0.1 µg/mL in test [3]; 0.39 µg/mL in test [4] (setting [27]); 50 µg/mL in [5] (setting [22]); 1.56 µg/mL in test [6]. Moreover, the MIC is 1.56 µg/mL in test [7] (read-out: Minimum Inhibitory Concentration (MIC), Ps. aeruginosa AK 109, 10^6 CFU/ml); 0.1 µg/mL in test [8] (setting [31]); 3.12 µg/mL in test [9] (setting [23]); 6.25 µg/mL in test [10] (setting [30]); 0.0125 µg/mL in [11]; 0.05 µg/mL in test [12]. Also, the MIC came out at 0.39 µg/mL in test [13]; 0.39 µg/mL in test [14]; 1.56 µg/mL in test [15]; 0.1 µg/mL in test [16] (setting [28]); 0.025 µg/mL in test [17]; 3.12 µg/mL in test [18] (setting [23]). For the same compound, the MIC is 0.1 µg/mL in [19] (setting [29]) and < 6 ng/mL in [20].

The values above are taken from US5061794A, “Cephalosporin derivatives, and antibacterial agents” (priority 1986, dated 1991).
